According to patent publication US12421276B2 (priority 2016, dated 2025):

Tests used:
[1] = Metabolic stability in simulated gastric fluid (SGF), pH 1.2, with or without pepsin; assay type: in vitro ADME; conditions: 5 μM, 37° C.
Method in brief: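 Compound at 5 μM incubated at 37 °C in SGF (34.2 mM NaCl, pH 1.2) without or with 0.32% pepsin; acetonitrile/formic acid quench at time points, LC/MS/MS. Disappearance relative to 0-min; t½ from elimination rate constant of semi-log % remaining vs time.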

Caco-2 cells = assay: Caco-2 permeability study with or without P-gp inhibitor GF120918; conditions: for Abs. Quotient: (Papp A-B with inhibitor − without inhibitor)/Papp A-B with inhibitor; for Caco-2 Cells Permeability Recovery Rate: 1 hr, pH 7.4
Procedure: Buffer=HBSS, pH 7.4 with 5 mM HEPES
Caco-2 cell plates were obtained commercially and were maintained for 21 days at 37° C. with 5% CO2. Cells were washed with Hank's Balanced Salt Solution (HBSS) 30 min before starting the experiment. Test compound solutions were prepared by diluting from DMSO stock into HBSS buffer in the presence or absence of 10 μM of P-gp inhibitor GF120918. The final DMSO concentration is 0.2%. Prior to each experiment, cell monolayer integrity was verified by transendothelial electrical resistance (TEER). Transport experiment was initiated by adding test compounds to the apical (75 μL) side. Transport plates were incubated at 37° C. in a humidified incubator with 5% CO2. Samples were taken from the donor and acceptor compartments after 1 hr and analyzed by liquid chromatography with tandem mass spectrometry (LC/MS/MS).
Apparent permeability (Papp) values were calculated using the following equation: Papp=(dQ/dt)/A/C0
where dQ/dt is the initial rate of amount of test compound transported across cell monolayer, A is the surface area of the filter membrane, and C0 is the initial concentration of the test compound. C0 is calculated for each condition using a 4-point calibration curve.
Absorption quotient between the two assay conditions was calculated by the following equation:
Absorption quotient (AQ)=(Papp, A-B with inhibitor−Papp, A-B without inhibitor)/Papp, A-B with inhibitor where Papp, A-B with inhibitor and Papp, A-B without inhibitor represent the apparent permeability of test compound from the apical to basal side of the cellular monolayer in the presence and absence of 10 μM P-gp inhibitor GF120918, respectively.
All samples were analyzed on LC/MS/MS using an AB Sciex API 4000 instrument, coupled to a Shimadzu LC-20AD LC Pump system. Analytical samples were separated using a Waters Atlantis T3 dC18 reverse phase HPLC column (10 mm×2.1 mm) at a flow rate of 0.5 mL/min. The mobile phase consisted of 0.1% formic acid in water (solvent A) and 0.1% formic acid in acetonitrile (solvent B).

[2] = Metabolic stability in simulated intestinal fluid (SIF), pH 6.8, with or without pancreatin; assay type: in vitro ADME; conditions: 5 μM, 37° C.
Method in brief: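 Compounds at 5 μM incubated at 37 °C in freshly made SIF pH 6.8 (NaOH/NaH2PO4/NaCl), with or without 1% pancreatin. Remaining parent measured by LC/MS/MS against 0-min control; t½ derived from elimination rate constant (−slope) of semi-log % remaining vs time.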

[3] = Plasma stability study, human plasma; assay type: in vitro ADME; conditions: Human plasma, 1 μM, 37° C.
Method in brief: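 Compounds (1 μM, from 0.3 mM DMSO stock) incubated at 37° C in K2 EDTA plasma, quenched at time points with acetonitrile/methanol/formic acid plus internal standard, and analysed by LC/MS/MS. Disappearance measured relative to 0-min control; t½ derived from elimination rate constant of semi-log % remaining versus time regression.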

[4] = +GF120918 (10 μM), 10 μM compound

CCCCCC(=O)NC(Cc1ccc(OC(=O)NCCN(C)C)cc1)C(=O)NC(C(=O)NCCCCCC(N)=O)C(C)CC (stereo not shown) [Compound A21]
SGF Stability (pH 1.2) Half-Life (min) ([1]; +Pepsin (0.32%)): 265.1 min | SGF Stability (pH 1.2) 0 min ([1]; +Pepsin (0.32%)): 100% | SGF Stability (pH 1.2) 60 min ([1]; +Pepsin (0.32%)): 87% | SGF Stability (pH 1.2) 120 min ([1]; +Pepsin (0.32%)): 74% | SGF Stability (pH 1.2) 240 min ([1]; +Pepsin (0.32%)): 54% | Abs. Quotient (Caco-2 cells): 0.50 | Caco-2 Cells Permeability Recovery Rate (Caco-2 cells; [4]): 84% | Caco-2 Cells Permeability Recovery Rate (Caco-2 cells; −GF120918, 10 μM compound): 84% | SIF Stability (pH 6.8) Half-Life (min) ([2]; +Pancreatin (1%)): 3006.4 min | SIF Stability (pH 6.8) 0 min ([2]; +Pancreatin (1%)): 100% | SIF Stability (pH 6.8) 60 min ([2]; +Pancreatin (1%)): 95% | SIF Stability (pH 6.8) 120 min ([2]; +Pancreatin (1%)): 97% | SIF Stability (pH 6.8) 240 min ([2]; +Pancreatin (1%)): 93% | Plasma Stability Half-Life [3]: 1.22 h | Plasma Stability (% Parent Remaining) 0 min [3]: 100% | Plasma Stability (% Parent Remaining) 60 min [3]: 59% | Plasma Stability (% Parent Remaining) 120 min [3]: 33% | Plasma Stability (% Parent Remaining) 240 min [3]: 11%

CCCCCC(=O)NC(Cc1ccc(OC(=O)N2CCN(C)CC2)cc1)C(=O)NC(C(=O)NCCCCCC(N)=O)C(C)CC (stereo not shown) [Compound A20]
SGF Stability (pH 1.2) Half-Life (min) ([1]; +Pepsin (0.32%)): 84.5 min | SGF Stability (pH 1.2) 0 min ([1]; +Pepsin (0.32%)): 100% | SGF Stability (pH 1.2) 60 min ([1]; +Pepsin (0.32%)): 57% | SGF Stability (pH 1.2) 120 min ([1]; +Pepsin (0.32%)): 37% | SGF Stability (pH 1.2) 240 min ([1]; +Pepsin (0.32%)): 26% | SGF Stability (pH 1.2) Half-Life (min) ([1]; −Pepsin): 116.5 min | SGF Stability (pH 1.2) 0 min ([1]; −Pepsin): 100% | SGF Stability (pH 1.2) 60 min ([1]; −Pepsin): 70% | SGF Stability (pH 1.2) 120 min ([1]; −Pepsin): 57% | SGF Stability (pH 1.2) 240 min ([1]; −Pepsin): 60% | Abs. Quotient (Caco-2 cells): 0.88 | Caco-2 Cells Permeability Recovery Rate (Caco-2 cells; [4]): 90% | Caco-2 Cells Permeability Recovery Rate (Caco-2 cells; −GF120918, 10 μM compound): 71% | SIF Stability (pH 6.8) Half-Life (min) ([2]; +Pancreatin (1%)): 86.6 min | SIF Stability (pH 6.8) 0 min ([2]; +Pancreatin (1%)): 100% | SIF Stability (pH 6.8) 60 min ([2]; +Pancreatin (1%)): 62% | SIF Stability (pH 6.8) 120 min ([2]; +Pancreatin (1%)): 54% | SIF Stability (pH 6.8) 240 min ([2]; +Pancreatin (1%)): 61% | SIF Stability (pH 6.8) Half-Life (min) ([2]; −Pancreatin): 95.4 min | SIF Stability (pH 6.8) 0 min ([2]; −Pancreatin): 100% | SIF Stability (pH 6.8) 60 min ([2]; −Pancreatin): 65% | SIF Stability (pH 6.8) 120 min ([2]; −Pancreatin): 57% | SIF Stability (pH 6.8) 240 min ([2]; −Pancreatin): 51% | Plasma Stability Half-Life [3]: 49.295 h | Plasma Stability (% Parent Remaining) 0 min [3]: 100% | Plasma Stability (% Parent Remaining) 60 min [3]: 83% | Plasma Stability (% Parent Remaining) 120 min [3]: 87% | Plasma Stability (% Parent Remaining) 240 min [3]: 90%
